System: PAIGB expression in U2OS cells
Test: RT-PCR and real time PCR of PAIGB expression in U2OS cells
Format: cell-based, human
Details: 1 or 10 nM
Protocol: RNA samples were subject to RT-PCR and Taq-man analysis using probe and primers to PAIGB polynucleotide sequences and GAPDH as well as 18S ribosomal RNA. RT-PCR was done using TaKaRa kit (Panvera, Shiga, Japan) according to manufacturer recommendation. RT reaction was done under following conditions: 30° C. for 10 min, 42° C. for 50 min, 99° C. for 5 min and 4° C. for 5 min. PCR conditions were: 94° C. for 5 min, 35 cycles of 94° C. for 2 min, 62° C. for 30″, 72° C. for 1 min and 30 sec, and 72° C. for 10 min. The PCR products were separated on 1% agarose gel.
Applicants performed multiplex real time PCR (TaqMan) analysis on previously DNAsed samples using gene specific probe and primers and 18S ribosomal RNA probe and primer sets purchased from Applied Biosystem. (Foster City, Calif.) The samples were DNAsed according to the protocol provided by Ambion (DNA-free kit). TaqMan probe and primers for PAIGB was identify using Primer Express computer program. The sequence for rat PAIGB TaqMan probe was 6FAM-5′[…] (SEQ ID NO: 16) forward and reverse primers were 5′[…] 3′ (SEQ ID NO:17) and 5′ […] 3′ (SEQ ID NO:18) respectively. The final concentrations for probes were 500 nM and 40 nM for PAIGB and 18S ribosomal RNA or GAPDH respectively. […]

## human PTH (1-34)
  PAIGB expression in human U2OS osteoblastic cells: induction

Reference: US7258999B2, “PTH responsive gene” (Wyeth, priority 2002, dated 2007)
